Patent US20050123553A1, “Amyloid beta-peptide and methods of use” (priority 2003, published 2005)

Tests used:
[1] = tested on: Aβ1-42-reactive T-cell lines; experiment: Epitope mapping / proliferation of Aβ1-42-reactive T-cell lines; format: cell-based, human; details: for Distribution of Aβ T-cell epitopes: Number of T-cell lines / Distribution of Aβ T-cell epitopes: percent: lines from 24 subjects, fine mapping with 15 amino acid overlapping peptides
Method: Epitope specificity of these 3 T-cell lines using 5 overlapping peptides within Aβ15-42 was further investigated.
(§1) T-cell lines were then supplemented with 10 μg/ml IL-2 after 48 hours and every 2 days thereafter until they were completely resting. T-cell proliferation was measured 72 hours after stimulation following a 12 hr incubation with [^3H]-thymidine. Supernatants were collected 48 hr after T-cell stimulation, and antigen-induced cytokine production was measured by sandwich ELISA. Recommended pairs of antibodies (coating and detecting) for IL-10 (R&D, Minneapolis, Minn.), INF-γ. Endogen, Woburn, Mass.), IL-13 (PharMingen, (San Diego, Calif.), and TGF-β (Promega, Madison, Wis.) were used according to the manufacturer's instructions. Surface and intracellular staining was performed on Aβ-reactive T-cells after stimulation. All antibodies were purchased from BD Biosciences (San Diego, Calif.) and staining was performed according to the manufacturer's instructions.

[2] = Fibril formation by quasielastic light-scattering spectroscopy (QLS); format: physicochemical; details: phosphate buffer pH 7.4, 3 samples of 10 μg/ml, 5 consecutive days
Method: Fibril formation was measured in 3 equivalent samples of 10 μg/ml Aβ for 5 consecutive days. […] Nested Aβ peptides (Aβ1-15, Aβ4-18, Aβ7-21, Aβ10-24, Aβ13-27, Aβ16-30, Aβ19-33, Aβ22-36, Aβ25-39, Aβ28-42) and alanine/glycine-substituted peptides were synthesized at Biosource International (Hopkinton, Mass.). Aβ peptides used for T-cell assays were dissolved in DMSO (2 mg/ml). Glatiramer acetate (GA) was obtained at the Brigham and Women's Hospital pharmacy.

Aβ-reactive T-cell lines = experiment: Cytokine secretion of Aβ-reactive T-cell lines (sandwich ELISA); format: cell-based, human
Method: as §1

Aβ-reactive T cells = experiment: FACS of activation marker and cytokine expression in an Aβ-reactive T-cell line; format: cell-based, human; details: 30 hr after stimulation with irradiated autologous PBMCs
Method: To further determine the phenotype of Aβ-reactive T cells, a representative T-cell line also was tested by FACS for Th1 and Th2 cytokine expression. […] We further asked whether the cytokine profiles represented primarily Th2 lineages by testing for the expression of INF-γ and IL-13/IL-5 in the same cells.
as §1

Aβ16-30-specific T cells = experiment: Proliferation of Aβ16-30-specific T cells with alanine/glycine-substituted peptides; format: cell-based, human; details: 72 hr
From the text: Because the T-cell epitopes were most frequently localized to Aβ16-30, we further mapped this epitope for each of its constituent amino acids by using alanine-substituted peptides in the T-cell proliferation assay (the naturally occurring alanines at positions 21 and 30 were changed to glycines). […] Substitution of lysine-16, alanine-21, serine-26 or aspargine-27 increased T-cell proliferation by more than 2-fold (Table 4).
In this experiment, T cells specific to Aβ16-30 were stimulated in the presence of alanine/glycine substituted peptides and autologous PBMCs. T-cell proliferation was measured by [^3H]-thymidine incorporation 72 hr after stimulation. Numbers represent average cpm of each antigen concentration tested (average cpm in the absence of antigen was 911).
as §1

[3] = tested on: popliteal draining lymph nodes (PLN) T cells; experiment: Lymph node T-cell proliferation after immunization of mice with Aβ in CFA; format: cell-based, mouse
APP/IFN-g Tg mice = details: App Tg, C57BL6, 12 days after imm.
Method: To determine whether carrying the IA^s allele is sufficient to induce T-cell activation and migration to the CNS of APP-tg mice, B6SJLF1 APP-tg mice line J20, see Methods) were immunized with Aβ10-24 in CFA followed by intravenous injection of PT at the time of immunization and 48 hr later.
APP/IFN-γ tg mice that were immunized with Aβb 10-24 were analyzed by immunohistochemistry 20 and 30 days after immunization for immune infiltrates associated with Aβ plaques.
Immunization and measurement of immune responses: Mice were immunized by footpad injection if sacrificed on day 12, for longer periods mice were injected in the flanks. Each mouse received 100 ml of antigen (1 mg/ml), emulsified in an equal volume of complete Freund's adjuvant (CFA). Mice were also injected intravenously with 150 ng pertussis toxin at the time of immunization and 48 hours later.
Immunohistochemistry and imaging: Cryosections (6 μm) from brains of APP-Tg+ mice were placed onto glass slides and fixed with ice-cold methanol for 2 min followed by 2% PFA at RT for 4 min. Sections were washed once with distilled water for 5 min and twice with PBS containing 0.05% Tween-20. Sections were then incubated for 1 hour at RT with blocking buffer (PBS containing 3% normal goat serum and 2% bovine serum albumin).

[4] = tested on: peripheral blood mononuclear cells; experiment: Primary stimulation of PBMCs with αCD3/CD28 or glatiramer acetate ([3H]thymidine proliferation); format: cell-based, human
Method: In this study, αCD3/CD28 stimulation was measured as follows. PBMCs were cultured with 1 μg/ml soluble αCD3 plus αCD28 or cell culture medium alone, pulsed with [^3H] thymidine on day 2 after stimulation and incorporation measured 12 hr later. For glatiramer acetate stimulation, cells were cultured with 50 μg/ml GA or cell culture medium alone, and pulsed with [^3H] thymidine on day 6. Mean cpm=average cpm for each group. The average cpm for cells with culture medium alone was 825. […] Proliferative responses were calculated from these subjects. Two-tailed p values were calculated for the mean cpm using the alternate Welch test, assuming Gaussion populations with unequal SD's.
Primary stimulation with αCD3/CD28 or GA: For […] stimulation frozen PBMCs (2×10^5 cells/well) were cultured in 5 wells (U-bottom 96-well plate) in the presence of 1 μg/ml soluble αCD3 plus αCD28 and in additional 5 wells with cell culture medium alone, pulsed with […] thymidine on day 2 after stimulation and incorporation measured 12 hr later. For glatiramer acetate stimulation, fresh PBMCs were cultured in 5 wells with 50 μg/ml GA or cell culture medium alone, pulsed with [^3H] thymidine on day 6, and incorporation measured 12 hr later.

[5] = tested on: Primary cultures of microglia; experiment: Aβ uptake and motility of microglia treated with IFN-γ (live confocal imaging); format: cell-based, mouse
Method: The meningoencephailis we observed was completely dependent on expression of IFN-g in the CNS. […] We therefore established an in vitro system to examine early events associated with microglia activation by IFN-γ and their contribution to uptake of Aβ and specific T-cell activation. Primary cultures of microglia were prepared and live images were obtained by a confocal microscope, as described in Methods. FITC-labeled Aβ was added to the culture for 30 min, cultures were carefully washed, and live images were taken for 30 minutes. […] (FIG. 10B).
Preparation of cultures of mouse brain microglia: Glial cultures were prepared as described (JI). […]
Aβ uptake and T-cell stimulation by microglia: PE-labeled microglial cells were cultured in MatTek culture dishes (Ashland, Mass.) for 24 hours in the DMEM-FCS medium. […] Live images were then taken for 30 min with 20 sec intervals by a Zeiss Laser Scanning Confocal Microscope and analyzed by 3D analysis software (Zeiss, Thornwood, N.Y.). […]

[6] = tested on: microglia and resting Aβ-reactive T cells; experiment: Co-culture of microglia and resting Aβ-reactive T cells; format: cell-based, mouse
Method: Microglial cells were sorted and cultured for 12 hours in the presence and absence of IFN-γ. […] Representative areas were then extracted (shown in higher power) and analyzed for the pattern of T-cell migration. In the IFN-γ-treated culture, T cells were attracted to microglial cells, indicated by the sharp turns between the cells (FIG. 11B), and made a significant higher average number of contacts with the microglial cells, as compared with the untreated microglial culture (about 2.1 versus about 0.5, P<0.001) (FIG. 11B). […] These contacts are short time synapse formations characteristics of an early event during T-cell stimulation.
Preparation of cultures of mouse brain microglia: Glial cultures were prepared as described (JI). Briefly, cells were dissociated from the cerebral cortex of 1-day-old C57BL/6 mice after careful removal of meninges tissues, and were cultured in poly-D-lysine (PDL)-coated tissue culture flasks in medium supplemented with Dulbecco's modified Eagle's medium (DMEM), 4 mM L-glutamine, 50 U/ml penicillin, […] streptomycin, 10 mM HEPES, 1 mM sodium pyruvate, 10 mM nonessential amino acids, […] 2-mercaptoethanol (Sigma, St Louis, Mo.), and 10% fetal calf serum (FCS). On day 7, cultures were incubated with 100 pg/ml IFN-γ for 72 hours and on day 10, the entire glial culture was trypsinized and microglia were labeled with PE-conjugated anti-CD11b and sorted using FACS Vantage SE Cell Sorter.
Aβ uptake and T-cell stimulation by microglia: PE-labeled microglial cells were cultured in MatTek culture dishes (Ashland, Mass.) for 24 hours in the DMEM-FCS medium. […] Live images were then taken for 30 min with 20 sec intervals by a Zeiss Laser Scanning Confocal Microscope and analyzed by 3D analysis software (Zeiss, Thornwood, N.Y.). For the microglia-T-cell coculture experiments, Aβ-reactive T cells were generated as described and labeled with Alexa Flour 488-conjugated anti-mouse CD4. Resting cells were added to the microglia culture together with Aβ1-42.

[7] = αCD3/CD28 1 μg/ml pulsed day 2, GA 50 μg/ml pulsed day 6

Aβ1-40: Aβ1-40 synthetic peptide, one of the two major forms of Aβ protein [reference compound]
reactivity of Aβ28-42-reactive T-cell lines [1]: unreactive | fibril formation / aggregation [2]: Slight aggregation was detected in only one sample

Aβ15-42: overlapping C-terminal fragment of Aβ1-42, residues 15-42 (QKLVFFAEDVGSNKGAIIGLMVGGVVIA; Amyloid-beta protein 42; UniProt P05067 686-713, looked up, fragment)
Distribution of Aβ T-cell epitopes: Number of T-cell lines [1]: 22 | Distribution of Aβ T-cell epitopes: percent [1]: 92% | Th2 response (Aβ-reactive T-cell lines): elicit a Th2 response | expression of the CD69 activation marker on CD4+ cells (Aβ-reactive T cells): increased expression

Aβ16-30: nested Aβ peptide, residues 16-30 (KLVFFAEDVGSNKGA; Amyloid-beta protein 42; UniProt P05067 687-701, looked up, fragment)
T-cell proliferation, average cpm (Aβ16-30-specific T cells; Peptide 0.1 μg/ml): 1648 cpm | T-cell proliferation, average cpm (Aβ16-30-specific T cells; Peptide 1 μg/ml): 6780 cpm | T-cell proliferation, average cpm (Aβ16-30-specific T cells; Peptide 10 μg/ml): 17339 cpm | frequency of positive T-cell lines induced [1]: highest frequency | Distribution of Aβ T-cell epitopes: Number of T-cell lines [1]: 10 | Distribution of Aβ T-cell epitopes: percent [1]: 42% | response compared with that induced by Aβ1-42 ([3]; 10-24 in SJL, 16-30 in C57BL6 mice): equivalent | T-cell proliferation with overlapping peptides ([3]; C57BL6 mice, immunized with human Aβ1-42): induced proliferation | recall proliferation of LN-derived T cells in vitro ([3]; SJL mice immunized with human Aβ10-24): not | CD4 (cells/mm^2 ± SEM) (APP/IFN-g Tg mice): 0 cells/mm^2 | CD11b (cells/mm^2 ± SEM) (APP/IFN-g Tg mice): 0 cells/mm^2 | Th2 response (Aβ-reactive T-cell lines): elicit a Th2 response

Glatiramer acetate
subjects that showed proliferation ([4]; all groups tested, 50 μg/ml GA): 90% | Proliferation, Mean cpm ± SEM, Adult [4, 7]: 35,342 ± 7,893 cpm | Proliferation, Mean cpm ± SEM, Alzheimer's disease subjects [4, 7]: 19,403 ± 3,078 cpm | Proliferation, Mean cpm ± SEM, Elderly [4, 7]: 27,311 ± 4,781 cpm

IFN-γ: cytokine used to treat microglial cultures (100 pg/ml)
Aβ uptake by microglia ([5]; pretreated versus untreated cultures, FITC-labeled Aβ 30 min): significantly enhanced | filipodia formation (microglia motility) ([5]; treated versus untreated cultures): longer and occurred with higher frequency | average number of contacts of T cells with the microglial cells ([6]; IFN-γ-treated culture): about 2.1 | motility of the T cells ([6]; IFN-γ-treated versus untreated culture): significant increase | density of T cells on microglia ([6]; IFN-γ-treated versus untreated microglia, Aβ1-42 as antigen): higher density
